Experimental data reported in ChEMBL document CHEMBL3091392, “Chromenylchalcones with inhibitory effects on monoamine oxidase B” (Bioorg Med Chem, 2013).

Assays:
[1] = target: T1, Amine oxidase [flavin-containing] B (Homo sapiens, UniProt P27338); test: Inhibition of MAO-B (unknown origin) using p-tyramine substrate by HPLC method
T1 sequence (P27338 whole entry): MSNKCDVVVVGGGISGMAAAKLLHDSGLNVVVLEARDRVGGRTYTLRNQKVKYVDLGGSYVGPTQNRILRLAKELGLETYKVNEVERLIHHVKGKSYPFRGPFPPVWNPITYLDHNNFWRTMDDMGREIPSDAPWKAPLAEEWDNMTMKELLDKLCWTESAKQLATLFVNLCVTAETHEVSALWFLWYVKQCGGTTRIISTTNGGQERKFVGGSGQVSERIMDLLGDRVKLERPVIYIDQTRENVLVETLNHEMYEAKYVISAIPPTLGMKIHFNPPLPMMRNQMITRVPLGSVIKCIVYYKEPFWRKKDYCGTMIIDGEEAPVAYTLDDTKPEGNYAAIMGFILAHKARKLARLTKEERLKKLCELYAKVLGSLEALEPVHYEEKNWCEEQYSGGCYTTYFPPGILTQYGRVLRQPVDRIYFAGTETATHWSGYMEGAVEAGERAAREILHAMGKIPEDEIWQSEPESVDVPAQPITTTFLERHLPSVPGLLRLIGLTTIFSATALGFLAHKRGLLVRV

[2] = target: T1, Amine oxidase [flavin-containing] B; test: Inhibition of human recombinant MAO-B expressed in insect cells by Amplex Red assay; assay type: cell-based
[3] = target: T1, Amine oxidase [flavin-containing] B; test: Inhibition of human recombinant MAO-B expressed in insect cells at 10 uM by Amplex Red assay; settings: read-out: INH
[4] = target: T1, Amine oxidase [flavin-containing] B; test: Inhibition of MAO-B (unknown origin)

IC50 [1] | Compound | also measured
35.9 µM | COc1cccc(C(=O)/C=C/C2=Cc3cc(Br)ccc3OC2)c1 | 
16.7 µM | COc1cc(OC)cc(C(=O)/C=C/C2=Cc3cc(Br)ccc3OC2)c1 | 
42.8 µM | COc1ccccc1C(=O)/C=C/C1=Cc2cc(Br)ccc2OC1 | 
18.3 µM | COc1cc(/C=C/C(=O)C2=Cc3cc(OC)ccc3OC2)cc(OC)c1 | 
 | O=c1c(Cc2ccc(Cl)cc2)coc2cc(Cl)cc(Cl)c12 | IC50 [4]: 0.437 µM

Compound | IC50 [1] | also measured
COc1ccc2c(c1)C=C(/C=C/C(=O)c1ccccc1OC)CO2 | 13.7 µM | IC50 [2]: 0.32 µM; inhibition at 10 µM [3]: 91.6%
